“Also recorded” adds a separate entry of the source.
Columns and labels:
[1] = tested on: IL1β (interleukin 1 beta); test: Inhibition of LPS-induced synthesis and liberation of cellular IL1β in human mononuclear cells (sandwich enzyme immuno test of supernatant); assay type: cell-based; conditions: for activity at 10 µM: concentration 0.01 mmol/l; for activity at 100 µM: concentration 0.1 mmol/l; for inhibitory effect on the synthesis and liberation of cytokines from human blood cells / effect on the IL1β level: in words; for effect on the IL1β level: human mononuclear cells, LPS-induced
Procedure: 10 ml of freshly prepared human citrate blood were carefully underlaid with 15 ml of Lymphoprep® (Molter GmbH, Heidelberg) and then centrifuged at 400×g for 40 min. at 20° C. The cell fraction which was visible as a white ring at the phase boundary was withdrawn with the aid of a syringe, diluted 1:1 (v/v) with PM-16 buffer (from Serva Feinbiochemica GmbH & Co. KG, Heidelberg) and then centrifuged, as above, for 10 min. […] Using a cell counter (type IT, from Coulter Diagnostics, Krefeld), the cell suspension, which is composed of about 90% lymphocytes and 10% monocytes, was adjusted to about 5 million cells/ml. Cell viability was monitored before and after the inhibition experiments using the known lactate dehydrogenase method.
The synthesis and liberation of cellular IL1β was induced by adding a solution of 500 ng of lipopolysaccharide (Salmonella abortus equi, Sigma GmbH, Deisenhofen) in 0.01 ml of dimethyl sulfoxide/water (1:10, v/v) to 0.48 ml of the above-described cell fraction. At the same time, a solution of leflunomide or leflunomide metabolite in 0.01 ml of dimethyl sulfoxide (for the final concentration in each case, see Tab. 1) was added to the cell fraction and the mixture was left at 37° C. for 20 h in a commercially available incubator. After cooling down to 0° C., the samples were centrifuged for 1 min. in a bench centrifuge and in each case 0.025 ml aliquots of the supernatant were examined for their IL1β content using a "sandwich" enzyme-immuno test kit (from Biermann GmbH, Bad Nauheim) in accordance with the manufacturer's instructions. The control values were determined without the addition of leflunomide or metabolite and set at 100%.

SD rat = test: Acute toxicity following intraperitoneal administration, SD rats; assay type: in vivo; conditions: after 3 weeks, Litchfield and Wilcoxon, 30240 min
Procedure: (§1) The acute toxicity following intraperitoneal administration of the test substance was carried out using NMRI mice (20 to 25 g) and SD rats (120 to 195 g). The test substance was suspended in a 1% strength solution of sodium carboxymethyl cellulose. The different doses of the test substance were administered to the mice in a volume of 10 ml/kg of body weight and to the rats in a volume of 5 ml/kg of body weight. 10 animals were used per dose. After 3 weeks, the acute toxicity was determined by the method of Litchfield and Wilcoxon.

[2] = tested on: isolated blood cell fraction (mononuclear cells); test: Metabolism of leflunomide in the mononuclear cell test sample (HPLC, time-dependent); assay type: in vitro ADME, human; conditions: in words; isolated blood cell fraction (mononuclear cells)
[3] = as above; assay type: in vitro ADME, human; conditions: human, mononuclear cells; mononuclear cell test sample, 37° C., HPLC
NMRI mouse = test: Acute toxicity following intraperitoneal administration, NMRI mice; assay type: in vivo; conditions: after 3 weeks, Litchfield and Wilcoxon, 30240 min
Procedure: as §1

[4] = Homo sapiens, control without addition = 100%, +/- standard deviation, 20 h, 37° C., LPS 500 ng

SMILES	activity at 10 µM [1, 4] [%]	activity at 100 µM [1, 4] [%]	inhibitory effect on the synthesis and liberation of cytokines from human blood cells [1]	effect on the IL1β level [1]	activity at 0.1 µM ([1]; Homo sapiens, concentration 0.0001 mmol/l, control without addition = 100%, +/- standard deviation, 20 h, 37° C., LPS 500 ng) [%]	activity at 5 µM ([1]; Homo sapiens, concentration 0.005 mmol/l, control without addition = 100%, n = 2, deviation not given, 20 h, 37° C., LPS 500 ng) [%]	activity at 50 µM ([1]; Homo sapiens, concentration 0.05 mmol/l, control without addition = 100%, +/- standard deviation, 20 h, 37° C., LPS 500 ng) [%]	acute toxicity intraperitoneally LD50 (SD rat)	metabolism of leflunomide under the experimental conditions [2]	half-life [3] [h]	acute toxicity intraperitoneally LD50 (NMRI mouse)
C/C(O)=C(\C#N)C(=O)Nc1ccc(C(F)(F)F)cc1 [Leflunomide metabolite, N-(4-trifluoromethylphenyl)-2-cyano-3-hydroxycrotonamide]	100 ± 3	99 ± 12	does not exhibit this advantageous effect	practically no effect on the IL1β level							
Cc1oncc1C(=O)Nc1ccc(C(F)(F)F)cc1 [Leflunomide, N-(4-trifluoromethylphenyl)-5-methylisoxazole-4-carboxamide]	70 ± 8	17 ± 4	strong inhibitory effect	clearly lowered	86 ± 11	68	27 ± 6	170 (153-189) mg/kg	did not, to any appreciable extent, metabolize the leflunomide to its metabolites; also recorded: metabolized only very slowly; also recorded: no appreciable metabolism	~10	185 (163-210) mg/kg

— US5556870A, “Use of leflunomide for inhibiting interleukin 1 beta” (priority 1993, dated 1996)
